Experiment: photoluminescence quantum yield (fraction); solvent given as SMILES

| SMILES | photoluminescence quantum yield (in C1CCOC1) | photoluminescence quantum yield (in C1COCCO1) | photoluminescence quantum yield (in CC#N) | photoluminescence quantum yield (in CC(C)=O) | photoluminescence quantum yield (in CCOC(C)=O) | photoluminescence quantum yield (in CN(C)C=O) | photoluminescence quantum yield (in CS(C)=O) | photoluminescence quantum yield (in Cc1ccccc1) | photoluminescence quantum yield (in ClC(Cl)Cl) | photoluminescence quantum yield (in ClCCl) | also measured |
| --- | --- | --- | --- | --- | --- | --- | --- | --- | --- | --- | --- |
| CN(c1ccccc1)c1ccc(/C=C2\C(=O)c3ccccc3S2(=O)=O)cc1 | 0.003 | 0.012 | 0.002 | 0.001 | 0.003 | 0.003 | 0.018 | 0.103 | 0.008 | 0.004 | photoluminescence quantum yield (in CO): 0.012 |
| CCN(CC)c1ccc2cc(/C=C/C3=CC(/C=C/c4cc5ccc(N(CC)CC)cc5oc4=O)=[O+][B-](F)(F)O3)c(=O)oc2c1 | – | – | 0.012 | 0.032 | 0.418 | 0.096 | 0.008 | 0.849 | 0.504 | 0.271 | – |
| Cc1cc(-c2ccc(-n3c4ccccc4c4ccccc43)cc2)nc(-c2ccc(-c3ccccc3)cc2)n1 | 0.62 | – | – | – | – | 0.59 | – | 0.52 | 0.75 | – | – |
| CCN1\C(=C/C=C/C=C/C2=[N+](CC)c3ccc4ccccc4c3C2(C)C)C(C)(C)c2c1ccc1ccccc21 | – | – | – | – | – | – | 0.302 | – | – | – | – |
| COc1ccc(-c2c3ccccc3c(C#Cc3ccccc3)c3cc4cc(C)sc4cc23)cc1 | – | – | – | – | – | – | – | – | – | 0.73 | – |
| COC(=O)c1ccc(/C=C2\N=C(c3ccccc3)NC2=O)cc1 | – | 0.159 | – | – | – | – | – | – | – | – | – |
| c1cc(-c2ccc(-n3c4ccccc4c4ccccc43)cc2)c2nsnc2c1 | – | – | – | – | – | – | – | – | – | 0.68 | – |
| COc1ccc(-c2cc(C)nc(-c3ccc(-n4c5ccccc5c5ccccc54)cc3)n2)cc1 | 0.47 | – | – | – | – | 0.66 | – | 0.34 | 0.68 | – | – |
| CCCCN(CCCC)c1ccc(C#Cc2cc(C#Cc3cc(C(F)(F)F)cc(C(F)(F)F)c3)c(C#Cc3ccc(N(CCCC)CCCC)cc3)cc2C#Cc2cc(C(F)(F)F)cc(C(F)(F)F)c2)cc1 | – | – | – | – | – | – | – | – | – | 0.25 | – |
| COC(=O)C(Cc1ccc2oc(-c3ccc(N(c4ccccc4)c4ccccc4)cc3)nc2c1)NC(=O)OC(C)(C)C (centres undefined) | 0.77 | 0.47 | 0.62 | 0.68 | 0.8 | 0.72 | 0.69 | – | 0.88 | 0.87 | photoluminescence quantum yield (in C1CCCCC1): 0.87; photoluminescence quantum yield (in CC1CCCCC1): 0.94; photoluminescence quantum yield (in CC1COC(=O)O1): 0.67; photoluminescence quantum yield (in CC(C)O): 0.77; photoluminescence quantum yield (in CC(O)CO): 0.63; photoluminescence quantum yield (in CCCCCC): 0.98; photoluminescence quantum yield (in CCCCCCCC): 0.99; photoluminescence quantum yield (in CCCCCO): 0.76; photoluminescence quantum yield (in CCCCO): 0.87; photoluminescence quantum yield (in CCO): 0.61; photoluminescence quantum yield (in CO): 0.42; photoluminescence quantum yield (in COCCOC): 0.44; photoluminescence quantum yield (in N#Cc1ccccc1): 0.26; photoluminescence quantum yield (in NC=O): 0.35; photoluminescence quantum yield (in O): 0.003; photoluminescence quantum yield (in OCC(F)(F)F): 0.05 |
| CCN(CC)c1ccc2cc(/C=C/C(=O)c3cc4ccc(N(CC)CC)cc4oc3=O)c(=O)oc2c1 | 0.53 | 0.58 | 0.11 | 0.27 | 0.57 | 0.01 | 0.06 | 0.68 | 0.5 | 0.59 | photoluminescence quantum yield (in CCO): 0.07; photoluminescence quantum yield (in O): 0 |
| C[C@]12C(=O)NC(=O)N([C@H]3CC(O)[C@@H](CO)O3)[C@H]1[C@H]1Oc3cc4oc(=O)ccc4cc3[C@H]12 (some centres undefined) | – | – | – | – | – | – | – | – | – | – | photoluminescence quantum yield (in CC(C)O): 0.003; photoluminescence quantum yield (in CCO): 0.005; photoluminescence quantum yield (in CCOCC): 0.001; photoluminescence quantum yield (in CO): 0.007; photoluminescence quantum yield (in O): 0.044 |

Reference: the Deep4Chem optical property database
